Experimental data published in the kinase profiling compilation of Christmann-Franck et al. (2016).

Tests used:
Test in all cases: KINOMEscan competition binding
Settings in all cases: compound 10.0 µM
CAMK2B (human) = CAMK2B (human) (UniProt Q13554)
[1] = tested on: EGFR (human), P00533 [A750P; 747-749 del]
MAPK14 (human) = MAPK14 (human) (UniProt Q16539)
STK39 (human) = STK39 (human) (UniProt Q9UEW8)
HIPK2 (human) = HIPK2 (human) (UniProt Q9H2X6)
ADCK3 (human) = ADCK3 (human) (UniProt Q8NI60)
EIF2AK1 (human) = EIF2AK1 (human) (UniProt Q9BQI3)
EPHB2 (human) = EPHB2 (human) (UniProt P29323)
LATS1 (human) = LATS1 (human) (UniProt O95835)
PRKCE (human) = PRKCE (human) (UniProt Q02156)
SIK2 (human) = SIK2 (human) (UniProt Q9H0K1)
AKT2 (human) = AKT2 (human) (UniProt P31751)
MAPKAPK5 (human) = MAPKAPK5 (human) (UniProt Q8IW41)
MAP3K9 (human) = MAP3K9 (human) (UniProt P80192)
SGK3 (human) = SGK3 (human) (UniProt Q96BR1)
SGK3 (human), sequence (Q96BR1 whole entry, looked up): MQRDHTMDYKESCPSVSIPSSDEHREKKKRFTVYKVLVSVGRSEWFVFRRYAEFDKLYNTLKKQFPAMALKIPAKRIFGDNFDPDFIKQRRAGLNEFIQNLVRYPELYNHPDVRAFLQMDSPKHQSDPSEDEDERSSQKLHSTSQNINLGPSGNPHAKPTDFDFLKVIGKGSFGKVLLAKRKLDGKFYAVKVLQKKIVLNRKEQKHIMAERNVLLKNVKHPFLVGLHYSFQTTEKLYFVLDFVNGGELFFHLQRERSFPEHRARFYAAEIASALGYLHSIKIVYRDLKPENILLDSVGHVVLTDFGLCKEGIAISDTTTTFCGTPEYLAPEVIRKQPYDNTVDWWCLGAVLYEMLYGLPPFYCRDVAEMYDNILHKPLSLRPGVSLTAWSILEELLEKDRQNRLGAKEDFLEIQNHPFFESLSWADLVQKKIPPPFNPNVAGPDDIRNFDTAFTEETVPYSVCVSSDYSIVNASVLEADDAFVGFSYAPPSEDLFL

FLT4 (human) = FLT4 (human) (UniProt P35916)
ACVR1 (human) = ACVR1 (human) (UniProt Q04771)
CDK11B (human) = CDK11B (human) (UniProt P21127)
NEK11 (human) = NEK11 (human) (UniProt Q8NG66)
[2] = tested on: KIT (human), P10721 [A829P]
MAP3K7 (human) = MAP3K7 (human) (UniProt O43318)
CAMK1G (human) = CAMK1G (human) (UniProt Q96NX5)
INSR (human) = INSR (human) (UniProt P06213)
CDK5 (human) = CDK5 (human) (UniProt Q00535)
MATK (human) = MATK (human) (UniProt P42679)
MATK (human), sequence (P42679 whole entry, looked up): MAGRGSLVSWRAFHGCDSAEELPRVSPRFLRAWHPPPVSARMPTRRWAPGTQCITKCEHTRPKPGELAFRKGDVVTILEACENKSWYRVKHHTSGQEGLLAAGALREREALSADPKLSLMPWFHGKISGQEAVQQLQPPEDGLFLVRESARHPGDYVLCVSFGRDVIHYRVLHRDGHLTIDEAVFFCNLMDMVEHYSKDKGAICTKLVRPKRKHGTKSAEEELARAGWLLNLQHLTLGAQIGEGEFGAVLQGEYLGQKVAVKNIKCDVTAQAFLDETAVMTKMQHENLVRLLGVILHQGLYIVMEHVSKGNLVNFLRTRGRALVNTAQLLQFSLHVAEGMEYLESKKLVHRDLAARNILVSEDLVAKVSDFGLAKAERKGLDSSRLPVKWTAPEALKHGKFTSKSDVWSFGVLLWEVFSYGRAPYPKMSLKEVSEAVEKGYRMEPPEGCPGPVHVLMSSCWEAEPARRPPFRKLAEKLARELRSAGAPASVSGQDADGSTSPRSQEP

PAK2 (human) = PAK2 (human) (UniProt Q13177)
[3] = tested on: PIK3CA (human), P42336 [M1043I]
SIK3 (human) = SIK3 (human) (UniProt Q9Y2K2)
CDK4 CCND3 (human) = CDK4 CCND3 (human) (UniProt P11802+P30281)
CDK4 CCND3 (human), sequence (P11802 whole entry, looked up): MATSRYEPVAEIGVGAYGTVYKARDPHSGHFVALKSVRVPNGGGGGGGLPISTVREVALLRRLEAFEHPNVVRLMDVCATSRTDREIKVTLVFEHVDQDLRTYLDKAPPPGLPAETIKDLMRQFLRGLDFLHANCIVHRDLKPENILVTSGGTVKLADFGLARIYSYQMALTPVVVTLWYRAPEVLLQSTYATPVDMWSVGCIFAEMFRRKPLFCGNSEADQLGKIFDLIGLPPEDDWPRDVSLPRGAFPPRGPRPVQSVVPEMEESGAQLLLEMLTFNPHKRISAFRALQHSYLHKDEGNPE
CDK4 CCND3 (human), sequence (P30281 whole entry, looked up): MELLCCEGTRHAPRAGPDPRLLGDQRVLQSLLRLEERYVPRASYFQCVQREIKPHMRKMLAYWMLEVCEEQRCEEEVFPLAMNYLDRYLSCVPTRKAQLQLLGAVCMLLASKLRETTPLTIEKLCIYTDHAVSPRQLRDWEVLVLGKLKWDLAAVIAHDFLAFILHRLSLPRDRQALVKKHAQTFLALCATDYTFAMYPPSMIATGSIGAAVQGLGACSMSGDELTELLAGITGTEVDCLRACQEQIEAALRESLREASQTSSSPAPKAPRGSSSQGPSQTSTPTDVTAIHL

NEK3 (human) = NEK3 (human) (UniProt P51956)
NEK3 (human), sequence (P51956 whole entry, looked up): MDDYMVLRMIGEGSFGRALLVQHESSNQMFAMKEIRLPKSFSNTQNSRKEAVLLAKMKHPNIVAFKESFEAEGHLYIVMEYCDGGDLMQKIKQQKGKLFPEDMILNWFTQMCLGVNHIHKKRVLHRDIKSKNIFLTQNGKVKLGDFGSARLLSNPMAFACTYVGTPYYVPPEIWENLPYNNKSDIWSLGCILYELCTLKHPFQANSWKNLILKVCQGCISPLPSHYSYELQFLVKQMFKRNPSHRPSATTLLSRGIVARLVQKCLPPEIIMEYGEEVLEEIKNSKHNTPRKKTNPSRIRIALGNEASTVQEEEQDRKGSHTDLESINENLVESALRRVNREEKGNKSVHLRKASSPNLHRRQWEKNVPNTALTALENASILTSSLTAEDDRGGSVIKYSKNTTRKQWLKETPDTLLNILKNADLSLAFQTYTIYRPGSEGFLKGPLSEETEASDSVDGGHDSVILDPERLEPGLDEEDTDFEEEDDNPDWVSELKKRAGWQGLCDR

CHEK1 (human) = CHEK1 (human) (UniProt O14757)
RET (human) = RET (human) (UniProt P07949)
LIMK2 (human) = LIMK2 (human) (UniProt P53671)
RPS6KA3 KD1 (human) = RPS6KA3 KD1 (human) (UniProt P51812)
RPS6KA3 KD1 (human), sequence (P51812 whole entry, looked up): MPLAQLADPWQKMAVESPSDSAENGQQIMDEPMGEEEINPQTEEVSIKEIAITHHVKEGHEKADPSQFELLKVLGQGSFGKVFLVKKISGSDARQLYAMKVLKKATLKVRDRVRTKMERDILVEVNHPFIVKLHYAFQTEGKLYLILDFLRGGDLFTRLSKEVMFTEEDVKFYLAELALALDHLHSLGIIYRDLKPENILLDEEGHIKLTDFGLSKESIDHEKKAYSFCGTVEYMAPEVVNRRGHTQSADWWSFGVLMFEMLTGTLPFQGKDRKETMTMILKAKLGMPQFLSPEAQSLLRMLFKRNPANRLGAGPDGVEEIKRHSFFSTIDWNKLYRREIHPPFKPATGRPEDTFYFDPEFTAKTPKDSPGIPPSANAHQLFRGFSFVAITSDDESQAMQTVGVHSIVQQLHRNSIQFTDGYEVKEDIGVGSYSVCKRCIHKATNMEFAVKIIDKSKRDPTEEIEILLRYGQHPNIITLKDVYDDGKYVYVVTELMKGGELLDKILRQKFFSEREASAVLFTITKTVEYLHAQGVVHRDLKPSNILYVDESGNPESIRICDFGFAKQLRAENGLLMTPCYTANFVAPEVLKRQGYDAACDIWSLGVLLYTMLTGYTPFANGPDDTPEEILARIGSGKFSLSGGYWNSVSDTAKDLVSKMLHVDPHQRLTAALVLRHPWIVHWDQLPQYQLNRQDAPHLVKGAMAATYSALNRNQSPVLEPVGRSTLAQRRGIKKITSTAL

ROCK1 (human) = ROCK1 (human) (UniProt Q13464)
PIP5K1A (human) = PIP5K1A (human) (UniProt Q99755)
PIP5K1A (human), sequence (Q99755 whole entry, looked up): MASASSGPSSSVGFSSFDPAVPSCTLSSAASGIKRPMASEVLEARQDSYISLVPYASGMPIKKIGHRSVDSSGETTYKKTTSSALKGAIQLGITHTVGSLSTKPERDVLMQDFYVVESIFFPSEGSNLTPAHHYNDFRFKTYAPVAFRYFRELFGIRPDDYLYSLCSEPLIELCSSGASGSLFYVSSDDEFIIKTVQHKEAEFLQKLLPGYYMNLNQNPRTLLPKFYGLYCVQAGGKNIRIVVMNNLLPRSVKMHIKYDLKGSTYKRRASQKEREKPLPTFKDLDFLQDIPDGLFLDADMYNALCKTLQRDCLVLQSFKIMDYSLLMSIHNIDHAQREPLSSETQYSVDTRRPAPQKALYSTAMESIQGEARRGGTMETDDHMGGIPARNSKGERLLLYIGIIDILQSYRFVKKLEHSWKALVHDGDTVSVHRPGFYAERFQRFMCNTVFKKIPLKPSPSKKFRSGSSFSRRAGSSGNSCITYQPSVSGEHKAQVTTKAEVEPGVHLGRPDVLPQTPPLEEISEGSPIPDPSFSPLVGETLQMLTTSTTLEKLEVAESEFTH

TEC (human) = TEC (human) (UniProt P42680)
CDK17 (human) = CDK17 (human) (UniProt Q00537)
CDK17 (human), sequence (Q00537 whole entry, looked up): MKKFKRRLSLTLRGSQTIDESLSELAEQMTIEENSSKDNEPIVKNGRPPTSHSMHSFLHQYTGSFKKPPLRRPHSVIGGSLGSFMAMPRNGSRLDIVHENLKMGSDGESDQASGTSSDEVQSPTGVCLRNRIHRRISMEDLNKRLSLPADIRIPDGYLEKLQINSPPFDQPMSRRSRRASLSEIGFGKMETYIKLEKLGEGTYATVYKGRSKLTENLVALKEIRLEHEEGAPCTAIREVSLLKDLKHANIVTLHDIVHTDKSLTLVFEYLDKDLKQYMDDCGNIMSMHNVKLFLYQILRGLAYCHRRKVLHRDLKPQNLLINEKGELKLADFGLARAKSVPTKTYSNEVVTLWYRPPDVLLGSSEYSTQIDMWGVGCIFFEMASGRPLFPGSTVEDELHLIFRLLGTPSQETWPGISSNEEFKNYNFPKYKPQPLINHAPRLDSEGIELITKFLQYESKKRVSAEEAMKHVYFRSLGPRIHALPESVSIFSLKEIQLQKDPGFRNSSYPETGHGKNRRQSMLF

PRKD3 (human) = PRKD3 (human) (UniProt O94806)
NEK5 (human) = NEK5 (human) (UniProt Q6P3R8)

CAMK2B (human), sequence (Q13554 whole entry, looked up): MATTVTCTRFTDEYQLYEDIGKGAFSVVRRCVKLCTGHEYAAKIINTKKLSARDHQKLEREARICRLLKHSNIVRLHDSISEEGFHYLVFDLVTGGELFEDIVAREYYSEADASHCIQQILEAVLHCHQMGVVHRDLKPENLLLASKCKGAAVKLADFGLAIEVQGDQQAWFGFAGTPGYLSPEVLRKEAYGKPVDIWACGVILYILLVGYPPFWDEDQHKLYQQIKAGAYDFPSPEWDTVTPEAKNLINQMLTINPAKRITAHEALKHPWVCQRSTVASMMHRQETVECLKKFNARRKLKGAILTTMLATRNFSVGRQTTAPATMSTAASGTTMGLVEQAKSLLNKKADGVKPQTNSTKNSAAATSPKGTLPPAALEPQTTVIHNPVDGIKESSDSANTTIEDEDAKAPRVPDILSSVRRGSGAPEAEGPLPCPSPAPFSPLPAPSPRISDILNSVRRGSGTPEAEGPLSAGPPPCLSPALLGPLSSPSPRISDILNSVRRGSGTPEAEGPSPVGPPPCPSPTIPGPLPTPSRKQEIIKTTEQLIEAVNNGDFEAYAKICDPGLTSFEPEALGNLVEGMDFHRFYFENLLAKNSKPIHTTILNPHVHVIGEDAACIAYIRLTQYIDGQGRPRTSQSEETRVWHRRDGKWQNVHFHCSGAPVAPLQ
MAPK14 (human), sequence (Q16539 whole entry, looked up): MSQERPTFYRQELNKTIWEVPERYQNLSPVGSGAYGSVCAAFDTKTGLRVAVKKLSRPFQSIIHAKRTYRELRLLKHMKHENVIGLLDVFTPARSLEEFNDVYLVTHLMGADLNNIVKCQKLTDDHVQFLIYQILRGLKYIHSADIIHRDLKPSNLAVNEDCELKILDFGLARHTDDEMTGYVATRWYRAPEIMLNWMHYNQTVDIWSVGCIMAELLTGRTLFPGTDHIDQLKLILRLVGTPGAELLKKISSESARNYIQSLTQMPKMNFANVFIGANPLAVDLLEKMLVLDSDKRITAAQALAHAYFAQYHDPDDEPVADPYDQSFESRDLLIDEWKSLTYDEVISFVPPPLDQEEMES

Structure (SMILES) | kinase still bound, per cent of control (CAMK2B (human)) [%] | kinase still bound, per cent of control [1] [%] | kinase still bound, per cent of control (MAPK14 (human)) [%] | kinase still bound, per cent of control (STK39 (human)) [%] | kinase still bound, per cent of control (HIPK2 (human)) [%] | kinase still bound, per cent of control (ADCK3 (human)) [%] | kinase still bound, per cent of control (EIF2AK1 (human)) [%] | kinase still bound, per cent of control (EPHB2 (human)) [%] | kinase still bound, per cent of control (LATS1 (human)) [%] | kinase still bound, per cent of control (PRKCE (human)) [%] | kinase still bound, per cent of control (SIK2 (human)) [%] | kinase still bound, per cent of control (AKT2 (human)) [%] | kinase still bound, per cent of control (MAPKAPK5 (human)) [%] | kinase still bound, per cent of control (MAP3K9 (human)) [%] | kinase still bound, per cent of control (SGK3 (human)) [%] | kinase still bound, per cent of control (FLT4 (human)) [%] | kinase still bound, per cent of control (ACVR1 (human)) [%] | kinase still bound, per cent of control (CDK11B (human)) [%] | kinase still bound, per cent of control (NEK11 (human)) [%] | kinase still bound, per cent of control [2] [%] | other results
N#Cc1cc(-c2ccnc(Nc3ccc(-n4cnc(-c5cccnc5)n4)cc3)n2)cc(N2CCOCC2)c1 | 37 | 62 | 100 | 100 | 6.2 | 38 | 100 | 89 | 100 | 100 | 33 | 100 | 100 | 22 | 100 | 84 | 23 | 32 | 100 | 51 | kinase still bound, per cent of control (MAP3K7 (human)): 15%; kinase still bound, per cent of control (CAMK1G (human)): 48%; kinase still bound, per cent of control (INSR (human)): 78%; kinase still bound, per cent of control (CDK5 (human)): 79%; kinase still bound, per cent of control (MATK (human)): 62%; kinase still bound, per cent of control (PAK2 (human)): 72%; kinase still bound, per cent of control [3]: 100%; kinase still bound, per cent of control (SIK3 (human)): 100%; kinase still bound, per cent of control (CDK4 CCND3 (human)): 12%; kinase still bound, per cent of control (NEK3 (human)): 0.75%; kinase still bound, per cent of control (CHEK1 (human)): 100%; kinase still bound, per cent of control (RET (human)): 100%; kinase still bound, per cent of control (LIMK2 (human)): 60%; kinase still bound, per cent of control (RPS6KA3 KD1 (human)): 69%; kinase still bound, per cent of control (ROCK1 (human)): 52%; kinase still bound, per cent of control (PIP5K1A (human)): 17%; kinase still bound, per cent of control (TEC (human)): 93%; kinase still bound, per cent of control (CDK17 (human)): 18%; kinase still bound, per cent of control (PRKD3 (human)): 100%; kinase still bound, per cent of control (NEK5 (human)): 1.4%
CCN1CCN(Cc2ccc(NC(=O)c3ccc(C)c(/C=C/c4cnc5[nH]ccc5c4OC)c3)cc2C(F)(F)F)CC1 | 100 | 1.1 | 0 | 100 | 41 | 100 | 78 | 0 | 32 | 75 | 30 | 48 | 90 | 1.4 | 38 | 0.2 | 100 | 8.5 | 32 | 64 | kinase still bound, per cent of control (MAP3K7 (human)): 4.8%; kinase still bound, per cent of control (CAMK1G (human)): 100%; kinase still bound, per cent of control (INSR (human)): 79%; kinase still bound, per cent of control (CDK5 (human)): 100%; kinase still bound, per cent of control (MATK (human)): 100%; kinase still bound, per cent of control (PAK2 (human)): 100%; kinase still bound, per cent of control [3]: 84%; kinase still bound, per cent of control (SIK3 (human)): 100%; kinase still bound, per cent of control (CDK4 CCND3 (human)): 73%; kinase still bound, per cent of control (NEK3 (human)): 77%; kinase still bound, per cent of control (CHEK1 (human)): 28%; kinase still bound, per cent of control (RET (human)): 0.1%; kinase still bound, per cent of control (LIMK2 (human)): 2.9%; kinase still bound, per cent of control (RPS6KA3 KD1 (human)): 14%; kinase still bound, per cent of control (ROCK1 (human)): 43%; kinase still bound, per cent of control (PIP5K1A (human)): 2.6%; kinase still bound, per cent of control (TEC (human)): 0.5%; kinase still bound, per cent of control (CDK17 (human)): 61%; kinase still bound, per cent of control (PRKD3 (human)): 52%; kinase still bound, per cent of control (NEK5 (human)): 4.3%
